Molecular target: Poly [ADP-ribose] polymerase 1 (Homo sapiens, UniProt P09874)
Assay: Inhibition of PARP1 (unknown origin)

Poly [ADP-ribose] polymerase 1, sequence (P09874 whole entry): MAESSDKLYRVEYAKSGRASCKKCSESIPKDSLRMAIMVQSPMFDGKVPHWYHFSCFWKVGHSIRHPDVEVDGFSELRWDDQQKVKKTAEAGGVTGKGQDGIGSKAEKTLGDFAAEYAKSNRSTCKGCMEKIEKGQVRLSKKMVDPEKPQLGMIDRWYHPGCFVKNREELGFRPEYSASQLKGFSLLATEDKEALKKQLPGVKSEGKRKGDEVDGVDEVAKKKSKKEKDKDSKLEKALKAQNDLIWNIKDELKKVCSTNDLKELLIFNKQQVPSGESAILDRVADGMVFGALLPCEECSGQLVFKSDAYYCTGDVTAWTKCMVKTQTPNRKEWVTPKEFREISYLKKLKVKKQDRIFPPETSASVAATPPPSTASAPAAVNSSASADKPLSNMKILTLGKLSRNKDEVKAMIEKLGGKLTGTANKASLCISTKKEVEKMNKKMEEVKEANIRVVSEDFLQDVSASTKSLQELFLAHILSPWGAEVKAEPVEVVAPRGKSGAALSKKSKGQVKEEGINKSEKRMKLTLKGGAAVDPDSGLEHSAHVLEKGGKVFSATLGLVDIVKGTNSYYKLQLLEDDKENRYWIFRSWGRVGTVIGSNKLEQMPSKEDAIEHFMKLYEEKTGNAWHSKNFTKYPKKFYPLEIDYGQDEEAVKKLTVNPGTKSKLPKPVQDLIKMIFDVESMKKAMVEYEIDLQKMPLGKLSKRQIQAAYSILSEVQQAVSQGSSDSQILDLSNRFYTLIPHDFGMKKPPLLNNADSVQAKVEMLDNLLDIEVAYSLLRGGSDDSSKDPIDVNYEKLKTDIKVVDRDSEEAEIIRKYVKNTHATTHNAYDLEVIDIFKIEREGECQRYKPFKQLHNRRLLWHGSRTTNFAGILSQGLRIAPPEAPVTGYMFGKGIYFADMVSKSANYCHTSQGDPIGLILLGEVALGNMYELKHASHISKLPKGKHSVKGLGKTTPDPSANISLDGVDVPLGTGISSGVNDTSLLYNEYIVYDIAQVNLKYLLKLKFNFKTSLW

O=c1cc(O)cc2oc(-c3ccc(O)c(-c4c(O)cc(O)c5c(=O)cc(-c6ccc(O)cc6)oc45)c3)cc(O)c1-2
IC50: 259 nM

Reference: BindingDB's records for PubMed 34843914 (China Pharmaceutical University, 2022)
